Assay results from article PMC8071358, “Targeting of the Essential acpP, ftsZ, and rne Genes in Carbapenem-Resistant Acinetobacter baumannii by Antisense PNA Precision Antibacterials” (Biomedicines, 2021).
{(KFF)3K-eg1} = H-(KFF)3K peptide (K lysine, F phenylalanine) with eg1 linker (8-amino-3,6-dioxaoctanoyl), on the PNA N terminus (5' end); {NH2} = C-terminal amide

Assays:
[1] = tested on: A. baumannii SSI1104; assay: BPP-PNA MIC, broth microdilution; assay type: cell-based, Acinetobacter baumannii; settings: 37 °C, 18 h
Method: (§1) MIC values were determined by broth microdilution according to standard protocols with a few modifications. […] Then, 180 µL bacterial solutions were dispensed into a low-bind 96-well plate (Thermo-Scientific, Roskilde, Denmark) along with 20 µL of BPP-PNA compound (BPP-PNA was serially diluted 2-fold from 16 to 0.5 µM in a 96-well plate). The plate was incubated in a Tecan Genios plate reader (GMI, Minnesota, Ramsey, USA) at 37 °C for 18 h with linear shaking, OD was measured every 20 min at 595 nm. […] The minimum bactericidal concentration (MBC) values were determined by plating 10 µL samples from the wells with no visible turbidity onto Mueller–Hinton agar plates. The MBC is determined the lowest concentration of BPP-PNA that reduces the viability of the initial bacterial inoculum by ≥99.9% (3-log reduction in CFU/mL). A minimum of two independent experiments (biological replicates) of the assay were conducted, and two technical replicates were used in each experiment for each bacterium, compound, and concentration.

[2] = tested on: CRAB strain AC46; assay: BPP-PNA MIC, broth microdilution; assay type: cell-based, Acinetobacter baumannii; settings: 37 °C, 18 h
Method: as §1

[3] = tested on: A. baumannii ATCC 19606; assay: BPP-PNA MIC, broth microdilution; assay type: cell-based, Acinetobacter baumannii; settings: 37 °C, 18 h
Method: (§2) MIC values were determined by broth microdilution according to standard protocols with a few modifications. An overnight bacterial cell culture was diluted to approximately 5 × 10^5 CFU/mL in non-cation-adjusted Muller Hinton Broth (MHB). Then, 180 µL bacterial solutions were dispensed into a low-bind 96-well plate (Thermo-Scientific, Roskilde, Denmark) along with 20 µL of BPP-PNA compound (BPP-PNA was serially diluted 2-fold from 16 to 0.5 µM in a 96-well plate). The plate was incubated in a Tecan Genios plate reader (GMI, Minnesota, Ramsey, USA) at 37 °C for 18 h with linear shaking, OD was measured every 20 min at 595 nm. […] The minimum bactericidal concentration (MBC) values were determined by plating 10 µL samples from the wells with no visible turbidity onto Mueller–Hinton agar plates. The MBC is determined the lowest concentration of BPP-PNA that reduces the viability of the initial bacterial inoculum by ≥99.9% (3-log reduction in CFU/mL). A minimum of two independent experiments (biological replicates) of the assay were conducted, and two technical replicates were used in each experiment for each bacterium, compound, and concentration.

[4] = tested on: CRAB strain AC44; assay: BPP-PNA MIC, broth microdilution; assay type: cell-based, Acinetobacter baumannii; settings: 37 °C, 18 h
Method: as §2

[5] = tested on: CRAB strain AC2; assay: BPP-PNA MIC, broth microdilution; assay type: cell-based, Acinetobacter baumannii; settings: 37 °C, 18 h
Method: as §2

[6] = tested on: acpP mRNA in CRAB AC44 strain; assay: Real-time RT-PCR of target mRNA; assay type: cell-based, Acinetobacter baumannii; settings: AC44, 1 h treatment, normalised to 16S rRNA, against untreated control
Method: Real time RT-PCR was used to determine the relative expression level of the target gene upon treatment with match BPP-PNA compared to mismatch and untreated controls. The primers for q-PCR were designed to match conserved gene sequences using the AlleleID7 software (Premier Biosoft, San Francisco, CA, USA) (Table S6). Additionally, for more accurate expression of the genes at treatment and untreated conditions, the efficacy of target gene and internal controls primers was calculated by using three consecutive dilutions of the sample cDNA and drawing a standard curve through the slope of the line. […] Statistical analysis was carried out on the gene expression levels normalized to the chosen reference gene (16S rRNA) through −∆Ct analysis. The relative expression of each gene was determined by the 2^−ΔΔCT method. We used the GenEx standard (NormFinder and GeNorm) software (bioMCC, Germany) for analyzing the data.
An overnight culture of bacteria was diluted 1:100 in MHB medium and was grown with shaking (160 rpm) at 37 °C to reach the OD595 = 0.2. Then, the bacterial culture was treated with different concentrations of BPP-PNA for 1 h and the bacterial cells were harvested by centrifugation and the cell pellet used for RNA extraction.
Total RNA was isolated using the GeneJET RNA purification kit (ThermoFisher Scientific, Roskilde, Denmark) following the manufacturer’s protocol. RNA samples were treated with DNase for 30 min at 37 °C (Turbo DNA-free kit Ambion/Applied Biosystems, Carlsbad, CA, USA) and then incubated at 72 °C for 5 min to inactivate the DNase. The genomic DNA (gDNA) contamination was checked by polymerase chain reaction (PCR). RNA concentrations were determined by Nanodrop spectrophotometry at 260 nm and purity was checked by determining the absorption ratios at 260/280 nm. Total RNA (0.5 μg) was reverse-transcribed to yield cDNA as template for real-time quantitative PCR using the Quanti Tect reverse transcription kit (Qiagen, Copenhagen, Denmark). The cDNA was diluted 1:50 and used as a template in the reaction. […]

[7] = tested on: P. aeruginosa (PAO1); assay: BPP-PNA MIC, broth microdilution; assay type: cell-based, Pseudomonas aeruginosa; settings: non-target species; MHB without cation (Oxoid)
Method: as §2

[8] = tested on: CRAB strains; assay: BPP-PNA MIC/MBC summarised over the panel of strains; assay type: cell-based, Acinetobacter baumannii
Method: as §2

[9] = tested on: E. coli K-12 MG1655; assay: BPP-PNA MIC, broth microdilution; assay type: cell-based, Escherichia coli; settings: non-target species; MHB without cation (Oxoid)
Method: as §2

[10] = tested on: HepG2 hepatocytes; assay: HepG2 cell toxicity (CellTiter-Glo, ATP); assay type: cell-based; settings: 10 µM, ATP level
Method: The cell toxicity of selected BPP-PNAs was determined using HepG2 hepatocytes grown in DMEM (low glucose) medium supplemented with 100 U/mL penicillin, 100 µg/mL streptomycin, 1% glutamax, and 10% fetal bovine serum (FBS) (Thermofisher Scientific, Roskilde, Denmark), at 37 °C with 5% CO2. Then, 7000–10,000 cells were seeded in each well of a 96-well plate. After 48 h, the BPP-PNAs were added (six replicates for each concentration), followed by overnight incubation. Total amount of adenosine triphosphate (ATP) was used as a measure of cell viability, according to the CellTiter-Glo luminescent cell viability assay (Promega, Madison, WI, USA) kit. BPP-PNAs concentrations ranged from 2.5 to 20 µM. Potassium dichromate (100 µM) was used as a positive control.

[11] = Oxoid MHB medium, cation adjusted
[12] = Sigma MHB medium without cation
[13] = Sigma MHB medium without cation, ~5 × 10^5 CFU/mL, OD595 < 0.1

Substance	MIC, SSI 1104 [1, 11] [µM]	MIC, SSI 1104 [1, 12] [µM]	MIC, AC46 [2, 11] [µM]	MIC, AC46 [2, 12] [µM]	MIC, ATCC 19606 [3, 11] [µM]	MIC, ATCC 19606 [3, 13] [µM]	MIC, AC44 [4, 11] [µM]	MIC, AC44 [4, 12] [µM]	MIC, AC2 [5, 11] [µM]	MIC, AC2 [5, 12] [µM]	reduction in the level of the acpP mRNA [6] [fold]	MIC, P. aeruginosa (PAO1) [7] [µM]	MIC (complete growth inhibition) over the CRAB strains tested ([8]; several A. baumannii strains) [µM]	MIC, SSI 1104 ([1]; MHB without cation (Oxoid)) [µM]	MIC, ATCC 19606 ([3]; MHB without cation (Oxoid)) [µM]	MIC, E. coli K-12 MG1655 [9] [µM]	MIC ([8]; text on Table 2, (R-Ahx-R)4 BPP) [µM]	MIC, AC44 ([4]; MHB without cation (Oxoid)) [µM]	toxicity in HepG2 [10]
H-(KFF)3K-eg1-TGACTTGTCAC-NH2 (all peptide nucleic acid (PNA), 5' {(KFF)3K-eg1}, 3' {NH2}) [PNA 5640, anti-acpP mismatch control of 5639]	4	4	4	4	4	4	4	4	4	4	4								
H-(KFF)3K-eg1-ATATCGCTCAC-NH2 (all peptide nucleic acid (PNA), 5' {(KFF)3K-eg1}, 3' {NH2}) [PNA 5652, anti-acpP peptide-PNA conjugate, match, +40 to +50]		4		4		4		4		4		16	4	4	4	16			
H-(R-Ahx-R)4-Ahx-GAGGCCATGAC-NH2 (N-terminal (R-Ahx-R)4-Ahx peptide, C-terminal amide, backbone not given here, further chemistry not given here) [PNA 5613, anti-ftsZ (R-Ahx-R)4-Ahx-PNA, match]															>16		> 16	>16	very significant toxicity
